Structures can show the parent of a compound that is named as a salt.
Biological target: T1, human recombinant ENPP1 (Homo sapiens, UniProt P22413)
T1 construct: purchased R&D systems
T1 sequence (P22413 1-925): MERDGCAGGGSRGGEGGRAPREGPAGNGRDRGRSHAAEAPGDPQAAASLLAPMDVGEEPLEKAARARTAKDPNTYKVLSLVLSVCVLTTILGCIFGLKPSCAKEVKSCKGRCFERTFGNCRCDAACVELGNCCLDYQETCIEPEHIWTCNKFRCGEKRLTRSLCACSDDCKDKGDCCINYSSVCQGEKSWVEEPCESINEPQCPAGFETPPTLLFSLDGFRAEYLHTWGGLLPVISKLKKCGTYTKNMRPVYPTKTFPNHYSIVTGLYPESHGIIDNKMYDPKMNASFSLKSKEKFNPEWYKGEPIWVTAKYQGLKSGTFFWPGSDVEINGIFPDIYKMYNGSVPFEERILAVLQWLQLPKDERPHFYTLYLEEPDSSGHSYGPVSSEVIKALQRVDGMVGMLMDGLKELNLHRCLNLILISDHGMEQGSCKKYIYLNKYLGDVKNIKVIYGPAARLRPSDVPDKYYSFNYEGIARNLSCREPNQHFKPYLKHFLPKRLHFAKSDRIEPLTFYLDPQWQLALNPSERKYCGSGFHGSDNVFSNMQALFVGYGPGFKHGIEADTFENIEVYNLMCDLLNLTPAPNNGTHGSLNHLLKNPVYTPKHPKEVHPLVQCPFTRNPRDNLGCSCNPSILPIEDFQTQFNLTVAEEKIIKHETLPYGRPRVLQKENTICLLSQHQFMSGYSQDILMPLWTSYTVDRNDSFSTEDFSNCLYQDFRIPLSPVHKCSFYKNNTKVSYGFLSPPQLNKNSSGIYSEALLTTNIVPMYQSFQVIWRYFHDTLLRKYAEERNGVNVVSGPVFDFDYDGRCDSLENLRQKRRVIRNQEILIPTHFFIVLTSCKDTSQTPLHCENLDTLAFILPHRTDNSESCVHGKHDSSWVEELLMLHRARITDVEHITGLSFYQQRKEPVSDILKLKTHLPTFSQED
Assay: in vitro recombinant human ENPP1 enzymatic assay (AMP-Glo, cGAMP substrate)
Format: biochemical
Conditions: for % inhibition: ENPP1, test concentration not given; for IC50: average ± SD from two or three independent repeats
Excerpt: ENPP1 hydrolyses nucleotides or nucleotide derivatives and produces nucleoside-5′-monophosphates and pyrophosphates. ENPP1 also hydrolyses 2′3′-cGAMP and produces 5′-adenosine monophosphate (AMP) and 5′ guanosine monophosphate (GMP). The produced AMP from the reaction is detected using the AMP-Glo® kit (Promega). The assay kit consists of two reagents; one to terminate the AMP-generating enzymatic reaction, remove ATP and convert AMP produced into ADP, and a second reagent to convert ADP to ATP, which is used to generate a luminescence in a luciferase reaction. The amount of light measured is proportional to the amount of AMP produced by ENPP1.
The final assay reaction mixture contains a buffer of 50 mM Tris (pH 8.5), 250 mM NaCl, 0.5 mM CaCl2, 1 μM ZnCl2, 5% glycerol and 1% DMSO. Serially diluted ENPP1 inhibitors (usually range from 10 μM to 0.5 nM) are pre-incubated with human recombinant ENPP1 enzyme (R&D systems) at 3 ng/reaction for 5–10 min at room temperature (RT). The reaction is initiated by adding cGAMP (at final concentration of 5 μM) and incubating for 90 min at 37 °C. At the end of incubation, the reaction is stopped by adding 10 μL of AMP-Glo reagent I and followed by incubation at RT for one hour. After incubation, 20 μL of AMP detection solution (mixture of AMP-Glo II reagent and Kinase-Glo one at 1:100 ratio) is added and incubated at RT for one hour. The luminescence signal generated is measured using the ClarioStar plate reader (BMG Labtech). Maximal activity control (containing enzyme and substrate in presence of 1% DMSO only; MAX) and background control (containing substrate and 1% DMSO; MIN) are evaluated simultaneously. In each experiment, serially diluted reference ENPP1 inhibitor is tested together. The IC50 values for % remaining activity versus compound concentration are determined by fitting the inhibition curves using a three-parameter variable method in GraphPad Prism® software. Triplicate wells are run at each inhibitor concentration and averaged IC50 value for each compound is calculated.

Structure (SMILES): Cn1ccc2c(N3CCC(CNS(N)(=O)=O)CC3)ncnc21 [18d, N-((1–(7-Methyl-7H-pyrrolo[2,3-d]pyrimidin-4-yl)piperidin-4-yl)methyl)methanesulfamide hydrochloride]
- % inhibition (Table 1): 100%
- IC50 (Table 1): 51.4 ± 0.002 nM

Structure (SMILES): NS(=O)(=O)NC1CCN(c2ncnc3[nH]ccc23)CC1 [18q, N-(1-(7H-Pyrrolo[2,3-d]pyrimidin-4-yl)piperidin-4-yl)methanesulfamide hydrochloride]
- % inhibition (Table 1): 71%
- IC50 (Table 1): 3323 ± 0.298 nM

Structure (SMILES): CC(C)(NS(N)(=O)=O)c1ccc(-c2ncnc3[nH]ccc23)cc1 [25h, N-(2–(4-(7H-Pyrrolo[2,3-d]pyrimidin-4-yl)phenyl)propan-2-yl)methanesulfamide hydrochloride]
- % inhibition (Table 2): 98%
- IC50 (Table 2): 1466 ± 0.044 nM

Structure (SMILES): NS(=O)(=O)NCC1CCN(c2ncnc3[nH]ccc23)CC1 [18c, N-((1–(7H-Pyrrolo[2,3-d]pyrimidin-4-yl)piperidin-4-yl)methyl)methanesulfamide hydrochloride]
- % inhibition (Table 1): 100%
- IC50 (Table 1): 19 ± 0.016 nM

Structure (SMILES): NS(=O)(=O)NCC1CCN(c2ncnc3c2ccn3Cc2ccccc2)CC1 [18j, N-((1–(7-Benzyl-7H-pyrrolo[2,3-d]pyrimidin-4-yl)piperidin-4-yl)methyl)methanesulfamide hydrochloride]
- % inhibition (Table 1): 17%

Structure (SMILES): CSc1nc(N2CCC(CCNS(N)(=O)=O)CC2)c2cc[nH]c2n1 [18b]
- % inhibition (Table 1): 34%
- IC50 (Table 1): 21610 ± 2.16 nM

Structure (SMILES): Cc1ccc(S(=O)(=O)NCC2CCN(c3ncnc4[nH]ccc34)CC2)cc1.Cl [20b, N-((1-(7H-Pyrrolo[2,3-d]pyrimidin-4-yl)piperidin-4-yl)methyl)-4-methylbenzenesulfonamide hydrochloride]
- % inhibition (Table 1): 62%

Structure (SMILES): NS(=O)(=O)NCC1CCN(c2ncnc3c2ccn3-c2ccoc2)CC1 [18k, N-((1–(7-(Furan-3-yl)-7H-pyrrolo[2,3-d]pyrimidin-4-yl)piperidin-4-yl)methyl)methanesulfamide hydrochloride]
- % inhibition (Table 1): 100%
- IC50 (Table 1): 54.1 ± 0.001 nM

Structure (SMILES): NS(=O)(=O)NCC1CCN(c2ncnc3c2ccn3-c2ccccc2)CC1 [18g, N-((1–(7-Phenyl-7H-pyrrolo[2,3-d]pyrimidin-4-yl)piperidin-4-yl)methyl)methanesulfamide hydrochloride hydrochloride]
- % inhibition (Table 1): 99%
- IC50 (Table 1): 298 ± 0.041 nM

Structure (SMILES): NS(=O)(=O)NCC1CCN(c2ncnc3c2ccn3-c2cccnc2)CC1 [18l, N-((1-(7-(Pyridin-3-yl)-7H-pyrrolo[2,3-d]pyrimidin-4-yl)piperidin-4-yl)methyl)methanesulfamide hydrochloride]
- % inhibition (Table 1): 71%
- IC50 (Table 1): 1853 ± 1.16 nM

Structure (SMILES): NS(=O)(=O)NCCC1CCN(c2ncnc3[nH]ccc23)CC1 [18a, N-(2–(1-(7H-Pyrrolo[2,3-d]pyrimidin-4-yl)piperidin-4-yl)ethyl)methanesulfamide hydrochloride]
- % inhibition (Table 1): 99%

Structure (SMILES): NS(=O)(=O)NCc1ccc(-c2ncnc3[nH]ccc23)cc1F [25c, N-(2-Fluoro-4-(7H-pyrrolo[2,3-d]pyrimidin-4-yl)benzyl)methanesulfamide hydrochloride]
- % inhibition (Table 2): 73%

Structure (SMILES): NS(=O)(=O)NCC1CCN(c2ncnc3c2ccn3-c2ccc(F)cc2)CC1 [18h, N-((1–(7-(4-Fluorophenyl)-7H-pyrrolo[2,3-d]pyrimidin-4-yl)piperidin-4-yl)methyl)methanesulfamide hydrochloride]
- % inhibition (Table 1): 54%

Structure (SMILES): Cc1cc2c(N3CCC(CNS(N)(=O)=O)CC3)ncnc2[nH]1 [18n, N-((1–(6-Methyl-7H-pyrrolo[2,3-d]pyrimidin-4-yl)piperidin-4-yl)methyl)methanesulfamide hydrochloride]
- % inhibition (Table 1): 99%
- IC50 (Table 1): 218 ± 0.019 nM

Structure (SMILES): COc1ccc(-n2ccc3c(N4CCC(CNS(N)(=O)=O)CC4)ncnc32)cc1 [18i, N-((1–(7-(4-Methoxyphenyl)-7H-pyrrolo[2,3-d]pyrimidin-4-yl)piperidin-4-yl)methyl)methanesulfamide hydrochloride]
- % inhibition (Table 1): 37%

Structure (SMILES): Cl.O=S(=O)(NCC1CCN(c2ncnc3[nH]ccc23)CC1)C1CC1 [20c, N-((1-(7H-Pyrrolo[2,3-d]pyrimidin-4-yl)piperidin-4-yl)methyl)cyclopropanesulfonamide hydrochloride]
- % inhibition (Table 1): 22%

Structure (SMILES): CC(C)n1ccc2c(N3CCC(CNS(N)(=O)=O)CC3)ncnc21 [18e, N-((1–(7-Isopropyl-7H-pyrrolo[2,3-d]pyrimidin-4-yl)piperidin-4-yl)methyl)methanesulfamide hydrochloride]
- % inhibition (Table 1): 75%
- IC50 (Table 1): 20660 ± 5.02 nM

Structure (SMILES): NS(=O)(=O)Nc1ccc(-c2ncnc3[nH]ccc23)cc1 [25a]
- % inhibition (Table 2): 0%

Structure (SMILES): NS(=O)(=O)NCC1CCN(c2ncnc3c2ccn3C2CC2)CC1 [18f, N-((1–(7-Cyclopropyl-7H-pyrrolo[2,3-d]pyrimidin-4-yl)piperidin-4-yl)methyl)methanesulfamide hydrochloride hydrochloride]
- % inhibition (Table 1): 100%
- IC50 (Table 1): 74 ± 0.052 nM

Structure (SMILES): NS(=O)(=O)NCc1ccc(-c2ncnc3[nH]ccc23)cc1 [25d, N-(4-(7H-Pyrrolo[2,3-d]pyrimidin-4-yl)benzyl)methanesulfamide hydrochloride]
- % inhibition (Table 2): 76%
- IC50 (Table 2): 7597 ± 1.27 nM

Structure (SMILES): Cc1c[nH]c2ncnc(N3CCC(CNS(N)(=O)=O)CC3)c12 [18m, N-((1–(5-Methyl-7H-pyrrolo[2,3-d]pyrimidin-4-yl)piperidin-4-yl)methyl)methanesulfamide hydrochloride]
- % inhibition (Table 1): 94%
- IC50 (Table 1): 462 ± 0.17 nM

Structure (SMILES): Cn1ccc2c(-c3ccc(CNS(N)(=O)=O)cc3)ncnc21 [25e, N-(4-(7-Methyl-7H-pyrrolo[2,3-d]pyrimidin-4-yl)benzyl)methanesulfamide hydrochloride]
- % inhibition (Table 2): 72%

Structure (SMILES): NS(=O)(=O)Nc1ccc(-c2ccnc3[nH]ccc23)cc1 [25b, N-(4-(1H-Pyrrolo[2,3-b]pyridin-4-yl)phenyl)methanesulfamide hydrochloride]
- % inhibition (Table 2): 33%

Structure (SMILES): Cl.O=S(=O)(NCC1CCN(c2ncnc3[nH]ccc23)CC1)c1cccs1 [20a, N-((1-(7H-Pyrrolo[2,3-d]pyrimidin-4-yl)piperidin-4-yl)methyl)thiophene-2-sulfonamide hydrochloride]
- % inhibition (Table 1): 37%

Structure (SMILES): CC(NS(N)(=O)=O)c1ccc(-c2ncnc3[nH]ccc23)cc1 (stereo not drawn) [25j, N-(1–(4-(7H-Pyrrolo[2,3-d]pyrimidin-4-yl)phenyl)ethyl)methanesulfamide hydrochloride]
- % inhibition (Table 2): 100%

Structure (SMILES): NS(=O)(=O)NCc1cccc(-c2ncnc3[nH]ccc23)c1 [25g, N-(3-(7H-Pyrrolo[2,3-d]pyrimidin-4-yl)benzyl)methanesulfamide hydrochloride]
- % inhibition (Table 2): 53%
- IC50 (Table 2): 4769 ± 0.455 nM

Structure (SMILES): CC(NS(N)(=O)=O)C1CCN(c2ncnc3[nH]ccc23)CC1 (stereo not drawn) [18o, N-(1–(1-(7H-Pyrrolo[2,3-d]pyrimidin-4-yl)piperidin-4-yl)ethyl)methanesulfamide hydrochloride]
- % inhibition (Table 1): 99%
- IC50 (Table 1): 250 ± 0.028 nM

Reference: article PMC9467556, “Identification of novel pyrrolopyrimidine and pyrrolopyridine derivatives as potent ENPP1 inhibitors” (Journal of Enzyme Inhibition and Medicinal Chemistry, 2022)
